Results reported in patent US10570168B2, “2′ and/or 5′ amino-acid ester phosphoramidate 3′-deoxy adenosine derivatives as anti- cancer compounds” (NuCana plc, priority 2014, dated 2020).

Assays:
Assay in all cases: Solid tumour and haematological malignancy assay (CellTiterGlo)
Format in all cases: cell-based
K562 = settings: Homo sapiens, K562, 72 h
Summary of the method: (§1)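 CTG luminescence read-out of viability after 3 days of compound exposure; duplicates, standard growth conditions, 0.5% DMSO final.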

HEL92.1.7 = settings: Homo sapiens, HEL 92.1.7, 72 h
Summary of the method: as §1

HT29 = settings: Homo sapiens, HT-29, 72 h
Summary of the method: as §1

MCF7 = settings: Homo sapiens, MCF7, 72 h
Summary of the method: as §1

MiaPaCa-2 = settings: Homo sapiens, MIA PaCa-2, 72 h
Summary of the method: as §1

CCRFCEM = settings: Homo sapiens, CCRF-CEM, 72 h
Summary of the method: as §1

KG-1 = settings: Homo sapiens, KG-1, 72 h
Summary of the method: as §1

HL-60 = settings: Homo sapiens, HL-60, 72 h
Summary of the method: as §1

HepG2 = settings: Homo sapiens, HepG2, 72 h
Summary of the method: as §1

Z138 = settings: Homo sapiens, Z-138, 72 h
Method: (§2) In vitro viability assay were performed to assess the effects of compounds on cell viability in selected cell lines over 72 hr using the CellTiterGlo (CTG, Promega-G7573) assay. The tests were performed in duplicates with treatment of compounds at 9 points, 3.16 folds titration in 96 well plates over ˜72 hr. The compound starting concentrations were […]. Cell viability assay using CellTiterGlo in 96-well plate were performed. Compound treatment 72 hrs, standard growth conditions, duplicates. Compounds were dissolved to 40 mM with thawed […]. Compounds were serially diluted at 3.16 fold in thawed DMSO, and warmed to 37° C. before being dissolved in media ([…]). After compounds were dissolved in media, media containing compounds were warmed to 37° C. in incubator and then compounds in media were added to cell plates ([…]) in duplicates. The compounds' final concentrations were from […] to 19.9 nM. All compound solubilities were checked and recorded again, then the plates were transferred to CO2 tissue culture incubator immediately and incubated for 3 days. DMSO final concentration is 0.5%.

MV4-11 = settings: Homo sapiens, MV4-11, 72 h
Method: as §2

RPMI-8226 = settings: Homo sapiens, RPMI-8226, 72 h
Method: as §2

BxPC-3-Luc = settings: 72 h, read-out: EC50 (absolute EC50)
Method: as §2

HS445 = settings: Hs 445, 72 h
Method: as §2

MOLT-4 = settings: Homo sapiens, MOLT-4, 72 h
Method: as §2

THP-1 = settings: Homo sapiens, THP-1, 72 h
Method: as §2

NCI-H929 = settings: Homo sapiens, NCI-H929, 72 h
Method: as §2

SW620 = settings: Homo sapiens, SW-620, 72 h
Method: as §2

RL = settings: Homo sapiens, 72 h
Method: as §2

CC(NP(=O)(OC[C@@H]1C[C@@H](O)[C@H](n2cnc3c(N)nc(Cl)nc32)O1)Oc1cccc2ccccc12)C(=O)OCc1ccccc1 (stereo in doubt) [S, (2R)-benzyl 2-((((2S,4R,5R)-5-(6-amino-2-chloro-9H-purin-9-yl)-4-hydroxytetrahydrofuran-2-yl)methoxy)(naphthalen-1-yloxy)phosphorylamino)propanoate]
EC50 (K562; read-out: EC50 (absolute EC50)): 15 to 100 µM | Emax (K562; read-out: MI %): 101% | EC50 (HEL92.1.7; read-out: EC50 (absolute EC50)): 5 to 15 µM | Emax (HEL92.1.7; read-out: MI %): 100% | EC50 (HT29; read-out: EC50 (absolute EC50)): 15 to 100 µM | Emax (HT29; read-out: MI %): 88.1% | EC50 (MCF7; read-out: EC50 (absolute EC50)): 15 to 100 µM | Emax (MCF7; read-out: MI %): 101% | EC50 (MiaPaCa-2; read-out: EC50 (absolute EC50)): 15 to 100 µM | Emax (MiaPaCa-2; read-out: MI %): 98.2% | EC50 (CCRFCEM; read-out: EC50 (absolute EC50)): 5 to 15 µM | Emax (CCRFCEM; read-out: MI %): 100% | EC50 (KG-1; read-out: EC50 (absolute EC50)): 15 to 100 µM | Emax (KG-1; read-out: MI %): 99% | EC50 (HL-60; read-out: EC50 (absolute EC50)): 5 to 15 µM | Emax (HL-60; read-out: MI %): 102% | EC50 (HepG2; read-out: EC50 (absolute EC50)): 15 to 100 µM | Emax (HepG2; read-out: MI %): 84.6% | EC50 (Z138; read-out: EC50 (absolute EC50)): 15 to 100 µM | Emax (Z138; read-out: MI %): 90.2% | EC50 (MV4-11; read-out: EC50 (absolute EC50)): 5 to 15 µM | Emax (MV4-11; read-out: MI %): 101% | EC50 (RPMI-8226; read-out: EC50 (absolute EC50)): 15 to 100 µM | Emax (RPMI-8226; read-out: MI %): 99.6% | EC50 (BxPC-3-Luc): 15 to 100 µM | EC50 (HS445; read-out: EC50 (absolute EC50)): 15 to 100 µM | Emax (HS445; read-out: MI %): 106% | EC50 (MOLT-4; read-out: EC50 (absolute EC50)): 5 to 15 µM | Emax (MOLT-4; read-out: MI %): 100% | EC50 (THP-1; read-out: EC50 (absolute EC50)): 15 to 100 µM | Emax (THP-1; read-out: MI %): 97% | EC50 (NCI-H929; read-out: EC50 (absolute EC50)): 5 to 15 µM | Emax (NCI-H929; read-out: MI %): 102% | EC50 (SW620; read-out: EC50 (absolute EC50)): 15 to 100 µM | Emax (SW620; read-out: MI %): 92.1% | EC50 (RL; read-out: EC50 (absolute EC50)): 5 to 15 µM | Emax (RL; read-out: MI %): 100%
